Results from ChEMBL document CHEMBL4354854, “DNA-Encoded Library Technology-Based Discovery, Lead Optimization, and Prodrug Strategy toward Structurally Unique Indoleamine 2,3-Dioxygenase-1 (IDO1) Inhibitors” (J Med Chem, 2020).
pIC50: −log10 of the molar value. In brackets after ≈: the same amount, converted by molar mass. Blank lines part the entries; values can stand above or below the compound they belong to. Activity calls are given as the source filed them. The calls are words filed in the database; no cut-off is given here.

What was measured:
[1] = Cytotoxicity against human PBMC cells assessed as reduction in cell viability measured after 48 hrs by Celltiter-glo luminescence assay; type: cell-based
[2] = molecular target: T1, Indoleamine 2,3-dioxygenase 1 (Homo sapiens, UniProt P14902)
Target sequence in this assay (P14902 whole entry): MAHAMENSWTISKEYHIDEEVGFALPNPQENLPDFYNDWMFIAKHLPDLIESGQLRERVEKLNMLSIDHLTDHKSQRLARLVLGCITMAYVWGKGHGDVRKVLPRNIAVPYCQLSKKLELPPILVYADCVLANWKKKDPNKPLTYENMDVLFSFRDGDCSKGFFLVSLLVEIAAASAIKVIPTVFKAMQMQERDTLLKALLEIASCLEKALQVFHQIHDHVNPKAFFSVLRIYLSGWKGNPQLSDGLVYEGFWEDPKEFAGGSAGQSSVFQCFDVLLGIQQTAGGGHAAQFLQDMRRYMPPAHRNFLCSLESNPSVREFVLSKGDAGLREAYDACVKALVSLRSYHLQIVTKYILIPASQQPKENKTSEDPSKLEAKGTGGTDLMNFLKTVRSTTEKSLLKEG
Description: Inhibition of IDO1 in IFN-gamma/LPS stimulated human PBMC assessed as reduction in kynurenine production after 48 hrs by RapidFire MS assay

[3] = Solubility of the compound in fasted state simulated intestinal fluid using amorphous compound; type: physicochemical
[4] = Oral bioavailability in Han Wistar rat assessed as (S)-Ethyl 6-Bromo-4-(1H-indazole-7-carboxamido)spiro-[chroman-2,4'-piperidine]-1'-carboxylate level at 4 mg/kg equiv of parent compound administered via gavage using amorphous compound by LC-MS/MS analysis; type: ADME, organism-based; settings: in vivo
[5] = Oral bioavailability in Han Wistar rat assessed as (S)-Ethyl 6-Bromo-4-(1H-indazole-7-carboxamido)spiro-[chroman-2,4'-piperidine]-1'-carboxylate level at 25 mg/kg equiv of parent compound administered via gavage using amorphous compound by LC-MS/MS analysis; type: ADME, organism-based; settings: in vivo
[6] = Oral bioavailability in Han Wistar rat assessed as (S)-Ethyl 6-Bromo-4-(1H-indazole-7-carboxamido)spiro-[chroman-2,4'-piperidine]-1'-carboxylate level at 82 mg/kg equiv of parent compound administered via gavage using amorphous compound by LC-MS/MS analysis; type: ADME, organism-based; settings: in vivo
[7] = Solubility of the compound in fasted state simulated intestinal fluid using crystalline compound; type: physicochemical
[8] = Oral bioavailability in CD-1 mouse assessed as (S)-Ethyl 6-Bromo-4-(1H-indazole-7-carboxamido)spiro-[chroman-2,4'-piperidine]-1'-carboxylate level at 3 mg/kg equiv of parent compound administered via gavage using crystalline compound by LC-MS/MS analysis; type: ADME, organism-based; settings: in vivo
[9] = Oral bioavailability in CD-1 mouse assessed as (S)-Ethyl 6-Bromo-4-(1H-indazole-7-carboxamido)spiro-[chroman-2,4'-piperidine]-1'-carboxylate level at 30 mg/kg equiv of parent compound administered via gavage using crystalline compound by LC-MS/MS analysis; type: ADME, organism-based; settings: in vivo
[10] = Oral bioavailability in CD-1 mouse assessed as (S)-Ethyl 6-Bromo-4-(1H-indazole-7-carboxamido)spiro-[chroman-2,4'-piperidine]-1'-carboxylate level at 89 mg/kg equiv of parent compound administered via gavage using crystalline compound by LC-MS/MS analysis; type: ADME, organism-based; settings: in vivo
[11] = Oral bioavailability in CD-1 mouse assessed as (S)-Ethyl 6-Bromo-4-(1H-indazole-7-carboxamido)spiro-[chroman-2,4'-piperidine]-1'-carboxylate level at 267 mg/kg equiv of parent compound administered via gavage using crystalline compound by LC-MS/MS analysis; type: ADME, organism-based; settings: in vivo
[12] = Oral bioavailability in Beagle dog assessed as (S)-Ethyl 6-Bromo-4-(1H-indazole-7-carboxamido)spiro-[chroman-2,4'-piperidine]-1'-carboxylate level at 3 mg/kg equiv of parent compound administered via gavage using crystalline compound by LC-MS/MS analysis; type: ADME, organism-based, Canis lupus familiaris; settings: in vivo
[13] = Oral bioavailability in Beagle dog assessed as (S)-Ethyl 6-Bromo-4-(1H-indazole-7-carboxamido)spiro-[chroman-2,4'-piperidine]-1'-carboxylate level at 30 mg/kg equiv of parent compound administered via gavage using crystalline compound by LC-MS/MS analysis; type: ADME, organism-based, Canis lupus familiaris; settings: in vivo
[14] = Oral bioavailability in Beagle dog assessed as (S)-Ethyl 6-Bromo-4-(1H-indazole-7-carboxamido)spiro-[chroman-2,4'-piperidine]-1'-carboxylate level at 89 mg/kg equiv of parent compound administered via gavage using crystalline compound by LC-MS/MS analysis; type: ADME, organism-based, Canis lupus familiaris; settings: in vivo
[15] = AUC (0 to t) in Beagle dog assessed as (S)-Ethyl 6-Bromo-4-(1H-indazole-7-carboxamido)spiro-[chroman-2,4'-piperidine]-1'-carboxylate level at 30 mg/kg equiv of parent compound administered via oral gavage using crystalline compound by LC-MS/MS analysis; type: ADME, organism-based, Canis lupus familiaris; settings: in vivo
Homo sapiens = assay: In vivo inhibition of IDO1 in human at 60 mg, po bid measured after 24 hrs relative to control; type: functional
[16] = Mutagenicity in Salmonella typhimurium in presence of S9 fraction by Ames test; settings: salmonella enterica subsp. enterica serovar typhimurium
[17] = Mutagenicity in Salmonella typhimurium in absence of S9 fraction by Ames test; type: toxicity; settings: salmonella enterica subsp. enterica serovar typhimurium
[18] = molecular target: T1, Indoleamine 2,3-dioxygenase 1; assay: Binding affinity to IDO1 holoenzyme (unknown origin) assessed as red shift in soret band at 10 uM measured after 2 hrs by UV-vis spectra analysis
Target sequence in this assay (P14902 whole entry, looked up): as the sequence (P14902 whole entry) above

[19] = Clearance in mouse; type: ADME, organism-based; settings: in vivo
[20] = Clearance in mouse relative to hepatic blood flow; type: ADME; settings: in vivo
[21] = Clearance in rat; type: ADME; settings: in vivo
[22] = Clearance in rat relative to hepatic blood flow; type: ADME; settings: in vivo
[23] = Clearance in monkey; type: ADME, Macaca mulatta; settings: rhesus monkey, in vivo
[24] = Clearance in monkey relative to hepatic blood flow; type: ADME, Macaca mulatta; settings: rhesus monkey, in vivo
[25] = Oral bioavailability in Han Wistar rat at 5 mg/kg administered via gavage using crystalline compound by LC-MS/MS analysis; type: ADME, organism-based; settings: in vivo
[26] = Oral bioavailability in Han Wistar rat at 30 mg/kg administered via gavage using crystalline compound by LC-MS/MS analysis; type: ADME, organism-based; settings: in vivo
[27] = Oral bioavailability in Han Wistar rat at 100 mg/kg administered via gavage using crystalline compound by LC-MS/MS analysis; type: ADME, organism-based; settings: in vivo
[28] = Oral bioavailability in Beagle dog at 5 mg/kg administered via gavage using crystalline compound by LC-MS/MS analysis; type: ADME, organism-based, Canis lupus familiaris; settings: in vivo
[29] = Oral bioavailability in Beagle dog at 30 mg/kg administered via gavage using crystalline compound by LC-MS/MS analysis; type: ADME, organism-based, Canis lupus familiaris; settings: in vivo
[30] = AUC (0 to t) in Beagle dog at 30 mg/kg, po administered via gavage using crystalline compound by LC-MS/MS analysis; type: ADME, organism-based, Canis lupus familiaris; settings: in vivo

pIC50 [2]: 8.19
Structure (SMILES): CCOC(=O)N1CCC2(CC1)C[C@H](NC(=O)c1cccc3cn[nH]c13)c1nc(OC)ccc1O2
CC50 at 48 h [1]: > 10 µM

solubility [3]: > 1000 µg/mL
F [4]: 65%
F [5]: 95%
F [6]: 91%
Structure (SMILES): CCOC(=O)N1CCC2(CC1)C[C@H](NC(=O)c1cccc3cn(COP(=O)(O)O)nc13)c1cc(Br)ccc1O2

solubility thermodynamic [7]: > 1000 µg/mL
F [8]: 33%
F [9]: 24%
F [10]: 31%
F [11]: 45%
F [12]: 37%
F [13]: 32%
F [14]: 21%
AUCt [15]: 8606 ng·h/mL
Structure (SMILES): CCOC(=O)N1CCC2(CC1)C[C@H](NC(=O)c1cccc3cn(COP(=O)(O)O)nc13)c1cc(Br)ccc1O2.NC(CO)(CO)CO.NC(CO)(CO)CO
inhibition (INH) (Homo sapiens): 90%
Activity [16]: Non-Toxic
Activity [17]: Non-Toxic

Structure (SMILES): CC(C)(C)OC(=O)N1CCC2(CC1)C[C@H](NC(=O)c1cccc3cn[nH]c13)c1cc(Br)ccc1O2
CC50 at 48 h [1]: > 10 µM

Structure (SMILES): CCOC(=O)N1CCC2(CC1)C[C@H](NC(=O)c1cccc3[nH]ncc13)c1cc(Br)ccc1O2
CC50 at 48 h [1]: > 10 µM

Structure (SMILES): CCOC(=O)N1CCC2(CC1)CC(NC(=O)c1cccc3cn[nH]c13)c1ccccc1O2 (racemic)
CC50 at 48 h [1]: > 10 µM

Structure (SMILES): CCOC(=O)N1CCC2(CC1)CC(NC(=O)c1cccc3cc[nH]c13)c1ccccc1O2 (racemic)
CC50 at 48 h [1]: > 10 µM

Structure (SMILES): CCOC(=O)N1CCC2(CC1)C[C@@H](NC(=O)c1cccc3cn[nH]c13)c1ccccc1O2
CC50 at 48 h [1]: > 10 µM

Structure (SMILES): CCOC(=O)N1CCC2(CC1)C[C@H](NC(=O)c1cccc3cc[nH]c13)c1cc(Br)ccc1O2
CC50 at 48 h [1]: > 10 µM

Structure (SMILES): CCOC(=O)N1CCC2(CC1)C[C@H](NC(=O)c1cccc3nn[nH]c13)c1cc(Br)ccc1O2
CC50 at 48 h [1]: > 10 µM

Structure (SMILES): CCOC(=O)N1CCC2(CC1)C[C@H](NC(=O)c1cccc3cn[nH]c13)c1cc(OC)ccc1O2
CC50 at 48 h [1]: > 10 µM

Structure (SMILES): CCOC(=O)N1CCC2(CC1)C[C@H](NC(=O)c1ccccc1NC(=O)C(F)(F)F)c1cc(Br)ccc1O2
CC50 at 48 h [1]: > 10 µM

Structure (SMILES): CCOC(=O)N1CCC2(CC1)C[C@H](NC(=O)c1cccc3[nH]c(=O)[nH]c13)c1cc(Br)ccc1O2
CC50 at 48 h [1]: > 10 µM

Structure (SMILES): CCOC(=O)N1CCC2(CC1)C[C@H](NC(=O)c1ccccc1O)c1cc(Br)ccc1O2
CC50 at 48 h [1]: > 10 µM

Structure (SMILES): CC(C)OC(=O)N1CCC2(CC1)C[C@H](NC(=O)c1cccc3cn[nH]c13)c1cc(Br)ccc1O2
CC50 at 48 h [1]: > 10 µM

Structure (SMILES): CCOC(=O)N1CCC2(CC1)C[C@H](NC(=O)c1cccc3cn[nH]c13)c1ccccc1O2
CC50 at 48 h [1]: > 10 µM

Structure (SMILES): CCOC(=O)N1CCC2(CC1)C[C@H](NC(=O)c1cccc3c1NC(=O)C3=O)c1cc(Br)ccc1O2
CC50 at 48 h [1]: > 10 µM

Activity [18]: inactive
Structure (SMILES): CC(C)CN(CC(C)C)c1ccc([C@H](C)CC(=O)O)cc1Nc1nc(C(F)(F)F)ns1

Structure (SMILES): CCOC(=O)N1CCC2(CC1)C[C@H](NC(=O)c1cccc3c1NC(=O)CO3)c1cc(Br)ccc1O2
CC50 at 48 h [1]: > 10 µM

Structure (SMILES): CCCOC(=O)N1CCC2(CC1)C[C@H](NC(=O)c1cccc3cn[nH]c13)c1cc(Br)ccc1O2
CC50 at 48 h [1]: > 10 µM

Activity [18]: inactive
Structure (SMILES): NS(=O)(=O)NCCNc1nonc1/C(=N/O)Nc1ccc(F)c(Br)c1

Structure (SMILES): CCOC(=O)N1CCC2(CC1)C[C@H](NC(=O)c1cccc3c1NC(=O)C3)c1cc(Br)ccc1O2
CC50 at 48 h [1]: > 10 µM

Structure (SMILES): CCOC(=O)N1CCC2(CC1)C[C@H](NC(=O)c1cccc3c1OCO3)c1cc(Br)ccc1O2
CC50 at 48 h [1]: > 10 µM

clearance [19]: 55 mL/min/kg
Structure (SMILES): CC(C)(C)OC(=O)N1CCC2(CC1)CC(NC(=O)c1cccc3cc[nH]c13)c1ccccc1O2 (racemic)
CC50 at 48 h [1]: 5.01 µM

Structure (SMILES): CCOC(=O)N1CCC2(CC1)C[C@H](NC(=O)c1ccccc1OC)c1cc(Br)ccc1O2
CC50 at 48 h [1]: > 10 µM

pIC50 [2]: 8.37
Structure (SMILES): COC(=O)N1CCC2(CC1)C[C@H](NC(=O)c1cccc3cn[nH]c13)c1cc(Br)ccc1O2
CC50 at 48 h [1]: 6.31 µM

Structure (SMILES): CCOC(=O)N1CCC2(CC1)C[C@H](NC(=O)c1cccc3cn[nH]c13)c1cc(CC)ccc1O2
CC50 at 48 h [1]: > 10 µM

pIC50 [2]: 7.68
Structure (SMILES): CCOC(=O)N1CCC2(CC1)C[C@H](NC(=O)c1cccc3cn[nH]c13)c1cc(Br)ncc1O2
CC50 at 48 h [1]: > 10 µM

Structure (SMILES): CCOC(=O)N1CCC2(CC1)C[C@H](NC(=O)c1cccc3ocnc13)c1cc(Br)ccc1O2
CC50 at 48 h [1]: > 10 µM

Structure (SMILES): CCOC(=O)N1CCC2(CC1)C[C@H](NC(=O)c1cccc3cn[nH]c13)c1cc(C(=O)O)ccc1O2
CC50 at 48 h [1]: > 10 µM

Structure (SMILES): CCOC(=O)N1CCC2(CC1)C[C@H](NC(=O)c1cccc3cn[nH]c13)c1cc(C(=O)OC)ccc1O2
CC50 at 48 h [1]: > 10 µM

Structure (SMILES): CCOC(=O)N1CCC2(CC1)C[C@H](NC(=O)c1cccc3nc[nH]c13)c1cc(Br)ccc1O2
CC50 at 48 h [1]: > 10 µM

clearance [19]: 10 mL/min/kg
CL [20]: 8%
clearance [21]: 11.7 mL/min/kg
CL [22]: 15%
clearance [23]: 6.1 mL/min/kg
CL [24]: 14%
solubility thermodynamic [7]: 18.4 µg/mL (≈ 35.8 µM)
bioavailability [25]: 11%
bioavailability [26]: 6%
bioavailability [27]: 3%
bioavailability [28]: 7%
bioavailability [29]: 0.2%
AUC(0-t) [30]: 44.7 ng·h/mL
Structure (SMILES): CCOC(=O)N1CCC2(CC1)C[C@H](NC(=O)c1cccc3cn[nH]c13)c1cc(Br)ccc1O2
CC50 at 48 h [1]: > 10 µM

Structure (SMILES): CCOC(=O)N1CCC2(CC1)C[C@H](NC(=O)c1cccc3cn[nH]c13)c1cc(C#N)ccc1O2
CC50 at 48 h [1]: > 10 µM
